pEC50, pIC50: −log10 of the molar value.
Key:
KDM2B (FBXL10) = molecular target: T1, KDM2B (FBXL10) (Homo sapiens, UniProt Q8NHM5); experiment: Histone lysine demethylase AlphaLISA assay, KDM2B; type: biochemical; details: read-out: KDM2B HDME Inhibition IC50
T1 sequence (Q8NHM5 1-650): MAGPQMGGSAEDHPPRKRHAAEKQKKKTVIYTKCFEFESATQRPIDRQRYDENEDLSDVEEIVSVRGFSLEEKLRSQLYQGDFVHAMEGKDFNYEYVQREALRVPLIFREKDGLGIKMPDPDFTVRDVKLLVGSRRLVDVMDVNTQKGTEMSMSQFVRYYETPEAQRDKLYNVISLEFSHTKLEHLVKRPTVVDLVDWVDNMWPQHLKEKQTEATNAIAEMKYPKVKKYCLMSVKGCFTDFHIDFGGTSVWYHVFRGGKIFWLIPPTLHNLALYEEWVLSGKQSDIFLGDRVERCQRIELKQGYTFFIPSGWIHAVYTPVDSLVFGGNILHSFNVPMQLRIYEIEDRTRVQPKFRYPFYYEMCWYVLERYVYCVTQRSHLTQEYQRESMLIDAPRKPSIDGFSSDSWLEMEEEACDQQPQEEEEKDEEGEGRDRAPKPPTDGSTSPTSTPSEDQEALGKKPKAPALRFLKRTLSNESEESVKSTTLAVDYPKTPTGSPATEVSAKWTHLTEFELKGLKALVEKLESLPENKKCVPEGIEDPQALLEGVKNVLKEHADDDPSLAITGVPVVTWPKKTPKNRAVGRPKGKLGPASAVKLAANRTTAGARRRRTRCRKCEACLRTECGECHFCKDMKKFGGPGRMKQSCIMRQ
How it was run: (§1)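 Biotinylated methylated H3 peptides (K9, K4, K27 or K36 marks) served as substrate, with 25 μM L-Asc and 10 μM α-KG. Enzymes were preincubated 10 min, then exposed to compounds (3% DMSO solutions) 10 min; product detected by AlphaLISA acceptor and streptavidin donor beads at room temperature in dark.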

KDM4B (JMJD2B) = molecular target: T2, KDM4B (JMJD2B) (Homo sapiens, UniProt O94953); experiment: Histone lysine demethylase AlphaLISA assay, KDM4B; type: biochemical; details: read-out: KDM4B HDME Inhibition IC50
T2 construct: 2-500; purchased BPS; host or cells: Bac (baculovirus system)
T2 sequence (O94953 2-500): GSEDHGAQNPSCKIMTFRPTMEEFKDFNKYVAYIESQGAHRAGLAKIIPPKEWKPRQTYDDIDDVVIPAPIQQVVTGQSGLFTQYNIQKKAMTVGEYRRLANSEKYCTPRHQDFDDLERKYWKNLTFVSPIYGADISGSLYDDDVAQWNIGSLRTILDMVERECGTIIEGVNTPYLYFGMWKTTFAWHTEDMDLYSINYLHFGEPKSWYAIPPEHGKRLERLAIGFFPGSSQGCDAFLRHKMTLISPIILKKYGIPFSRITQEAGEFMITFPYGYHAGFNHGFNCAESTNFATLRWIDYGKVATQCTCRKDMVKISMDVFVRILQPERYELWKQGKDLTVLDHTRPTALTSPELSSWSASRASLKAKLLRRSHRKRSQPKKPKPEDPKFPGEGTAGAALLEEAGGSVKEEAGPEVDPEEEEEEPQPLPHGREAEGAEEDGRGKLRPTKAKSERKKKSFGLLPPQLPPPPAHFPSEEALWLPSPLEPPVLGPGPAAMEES
Protocol: Assays are performed analogously to the protocol described by PerkinElmer (Roy et al. PerkinElmer Technical Note: AlphaLISA #12, April 2011)
Enzymes are dissolved in enzyme buffer and incubated for 10 min before being added to 3% DMSO solutions of compounds in enzyme buffer. Incubated for another 10 minutes, before substrate solution is added and the reaction mixture is incubated at room temperature. 10 μL acceptor beads, suspended in Epigenetic Buffer (Perkin Elmer AL008) from stock, are added and the suspension is incubated in the dark at room temperature, before a suspension of streptavidin donor beads (Perkin Elmer 6760002) in Epigenetic Buffer is added. After incubation at room temperature in the dark the plates are read.
BK9M3: Biotin-ARTKQTAR(KMe3)STGGKAPRKQ-NH2 (Caslo, Denmark) […]
Substrate Solution: Substrate, 25 μM L-Asc, and 10 μM α-KG in Buffer A.

KDM5B (PLU-1) = molecular target: T3, KDM5B (PLU-1) (Homo sapiens, UniProt Q9UGL1); experiment: Histone lysine demethylase AlphaLISA assay, KDM5B; type: biochemical; details: read-out: KDM5B HDME Inhibition IC50
T3 sequence (Q9UGL1 1-809): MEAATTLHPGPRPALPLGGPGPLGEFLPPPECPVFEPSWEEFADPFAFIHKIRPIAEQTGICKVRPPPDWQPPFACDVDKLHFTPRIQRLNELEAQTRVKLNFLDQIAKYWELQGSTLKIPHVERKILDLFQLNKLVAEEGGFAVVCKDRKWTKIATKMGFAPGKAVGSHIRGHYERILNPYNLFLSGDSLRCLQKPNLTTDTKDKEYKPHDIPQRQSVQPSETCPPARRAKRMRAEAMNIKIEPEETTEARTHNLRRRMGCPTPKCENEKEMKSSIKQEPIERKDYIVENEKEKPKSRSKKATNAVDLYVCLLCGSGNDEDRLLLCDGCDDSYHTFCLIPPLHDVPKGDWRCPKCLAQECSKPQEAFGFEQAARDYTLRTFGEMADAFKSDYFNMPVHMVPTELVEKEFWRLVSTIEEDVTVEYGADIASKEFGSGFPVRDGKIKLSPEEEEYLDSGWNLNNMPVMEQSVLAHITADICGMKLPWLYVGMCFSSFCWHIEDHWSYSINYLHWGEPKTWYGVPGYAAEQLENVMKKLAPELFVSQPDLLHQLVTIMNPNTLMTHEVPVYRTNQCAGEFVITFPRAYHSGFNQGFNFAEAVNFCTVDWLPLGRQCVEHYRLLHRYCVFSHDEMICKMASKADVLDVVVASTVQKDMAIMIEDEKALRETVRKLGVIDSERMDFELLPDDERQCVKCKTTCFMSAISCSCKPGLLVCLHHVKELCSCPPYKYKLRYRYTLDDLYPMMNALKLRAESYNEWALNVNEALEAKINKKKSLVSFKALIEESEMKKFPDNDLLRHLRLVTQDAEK
How it was run: as §1

MCF7 cells = experiment: Cell proliferation assay MCF7; type: cell-based; details: MCF7 human breast cancer cells; 120 hours; ATPlite 1 Step
How it was run: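 After 120 h of compound exposure (duplicates, DMSO at most 0.5%) in DMEM GlutaMAX with 10% FBS, ATPlite 1 Step luminescence measured cellular ATP. Compound was added 24 h after seeding, at a density chosen for ~90% confluence at the end.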

SMILES	pIC50 (KDM2B (FBXL10))	pIC50 (KDM4B (JMJD2B))	pIC50 (KDM5B (PLU-1))	pEC50 (MCF7 cells)
CCN(CC)CCCCNCc1cc(CNC(=O)C(F)(F)F)ccn1 [Compound 1, N-{[2-({[4-(diethylamino)butyl]-amino}methyl)pyridin-4-yl]methyl}-2,2,2-trifluoroacetamide]	< 5.60	> 6.60	5.60 to 6.60	> 6.60
CN(C)CCCNCc1cc(CN)ccn1 [Compound 3, [2-({[3-(dimethylamino)propyl]-amino}methyl)pyridin-4-yl]methanamine]	< 5.60	> 6.60	5.60 to 6.60	> 6.60
CCN(CCN(C)C)C(=O)CNCc1cc(CN)ccn1 [Compound 4, 2-({[4-(aminomethyl)pyridin-2-yl]methyl}amino)-N-[2-(dimethylamino)ethyl]-N-ethylacetamide]	< 5.60	> 6.60	> 6.60	> 6.60
CCN(CC)CCCCNCc1cc(CN)ccn1 [Compound 5, [2-({[4-(diethylamino)butyl]-amino}methyl)pyridin-4-yl]methanamine]	< 5.60	< 5.60	< 5.60	> 6.60
CCN(CC)CCCCN(Cc1cc(CNC(=O)C(F)(F)F)ccn1)C(=O)C(F)(F)F [Compound 6, N-[4-(diethylamino)butyl]-- 2,2,2-trifluoro-N-({4-[(trifluoroacetamido)-methyl]pyridin-2-yl}methyl)acetamide]	< 5.60	> 6.60	< 5.60	> 6.60
NCc1ccnc(CNCCCCN2CCC2)c1 [Compound 7, [2-({[4-(azetidin-1-yl)butyl]amino}methyl)-pyridin-4-yl]-methanamine]	< 5.60	> 6.60	5.60 to 6.60	5.60 to 6.60
CN(C)CCCCCNCc1cc(CN)ccn1 [Compound 8, [2-({[5-(dimethylamino)pentyl]-amino}methyl)pyridin-4-yl]methanamine]	< 5.60	< 5.60	> 6.60	> 6.60
COc1ccccc1CN1CCC(NC(=O)CNCc2cc(CN)ccn2)CC1 [Compound 9, 2-({[4-(aminomethyl)pyridin-2-yl]methyl}amino)-N-{1-[(2-methoxyphenyl)methyl]-piperidin-4-yl}acetamide]	< 5.60	< 5.60	5.60 to 6.60	< 5.60
CC(C#N)NCc1ccnc(CNCCCN(C)C)c1 (stereo not shown) [Compound 22, 2-({[2-({[3-(dimethylamino)propyl]-amino}methyl)pyridin-4-yl]methyl}amino)-propanenitrile]	< 5.60	5.60 to 6.60	5.60 to 6.60	> 6.60
CCN(CCN(C)C)C(=O)CNCc1cc(CNC(=O)C(F)(F)F)ccn1 [Compound 25, N-[(2-{[({[2-(dimethylamino)ethyl]-(ethyl)carbamoyl}-methyl)amino]methyl}-pyrtdin-4-yl)methyl]-2,2,2-trifluoroacetamide]	< 5.60	< 5.60	5.60 to 6.60	> 6.60
CN(C)C(=O)CNCc1cc(/C=N/CCCc2ccccc2)ccn1 [Compound 34, N,N-dimethyl-2-[({4-[[(3-phenylpropyl)imino]-methyl]pyridin-2-yl}methyl)amino]-acetamide]	< 5.60	< 5.60	> 6.60	< 5.60
CN(C)C(=O)CNCc1cc(/C=N/CCC2CCCCC2)ccn1 [Compound 36, 2-[({4-[[(2-cyclohexylethyl)imino]-methyl]pyridin-2-yl}methyl)amino]-N,N-dimethylacetamide]	< 5.60	> 6.60	> 6.60	5.60 to 6.60
CN(C)CCC/N=C/c1ccnc(CNCCCN(C)C)c1 [Compound 37, [3-(dimethylamino)propyl]-({4-[{[3-(dimethylamino)propyl]-imino}methyl]pyridin-2-yl}methyl)amine]	< 5.60	5.60 to 6.60	> 6.60	> 6.60
CN(C)CCCNCc1cc(/C=N/CCN(C)C)ccn1 [Compound 38, ({4-[{[2-(dimethylamino)ethyl]-imino}methyl]pyridin-2-yl}methyl)[3-(dimethylamino)-propyl]amine]	< 5.60	< 5.60	> 6.60	> 6.60
CN1CCCC1CCNCc1cc(/C=N/C2CC2)ccn1 (stereo not drawn) [Compound 40, N-{[2-({[2-(l-methylpyrrolidin-2-yl)ethyl]amino}methyl)-pyridin-4-yl]methylidene}-cyclopropanamine]	< 5.60	5.60 to 6.60	> 6.60	5.60 to 6.60
C(=N/C1CC1)/c1ccnc(CNCCCN2CCCC2)c1 [Compound 42, N-{[2-({[3-(pyrrolidin-1-yl)propyl]amino}-methyl)pyridin-4-yl]methylidene}-cyclopropanamine]	< 5.60	5.60 to 6.60	> 6.60	> 6.60
CCN1CCCC1CNC(=O)CNCc1cc(C=O)ccn1 (stereo not shown) [Compound 104, N-[(1-ethylpyrrolidin-2-yl)methyl]-2-{[(4-formylpyridin-2-yl)methyl]amino}-acetamide]	< 5.60	> 6.60	> 6.60	
CCN(CC)C(=O)CNCc1cc(C=O)ccn1 [Compound 105, N,N-diethyl-2-{[(4-formylpyridin-2-yl)methyl]amino}-acetamide]	< 5.60	> 6.60	5.60 to 6.60	
O=Cc1ccnc(CNCC(=O)N2CCC(Cc3ccccc3)CC2)c1 [Compound 106, 2-({[2-(4-benzylpiperidin-1-yl)-2-oxoethyl]-amino}methyl)-pyridine-4-carbaldehyde]	< 5.60	> 6.60	> 6.60	
CN(C)CCCCCNCc1cc(C=O)ccn1 [Compound 114, 2-({[5-(dimethylamino)-pentyl]amino}methyl)-pyridine-4-carbaldehyde]	< 5.60	5.60 to 6.60	> 6.60	
